Drawing on patent US9920074B2 (ACEA BIOSCIENCES INC., priority 2013, dated 2018), this text covers IC50 for 18 molecules.

What all share (format): cell-based
The target of assay [1] is T1, Btk (Tyr223) phosphorylation in Ramos cells (Homo sapiens, UniProt Q06187).
T1 construct: endogenous in cells; host or cells: Ramos cells (ATCC)
Nature of the assay: Btk Tyr223 phosphorylation inhibition, western blotting assay (Example 72). Conditions: Btk Tyr223 phosphorylation, 45 min, 12 μg/mL IgM, read-out: BTK Inhibition. The protocol: Ramos cell line was obtained from the American Type Culture Collection and was maintained at 37° C. with 5% CO2, in media supplemented with 10% fetal bovine serum, penicillin (100 units/mL) and streptomycin (100 μg/mL), Goat F(ab′)2 Anti-Human IgM-UNLB was obtained from SouthernBiotech.
Ramos cells were treated with compounds at indicated doses for 45 min at room temperature, followed by stimulation of 12 μg/mL of IgM for 30 min, and then lysed. Western blots were performed on the cell lysate using Phospho-Btk (Tyr223), Phospho-Btk (Tyr551), Btk, Phospho-PLCγ2 (Tyr1217), PLCγ2, Phospho-p44/42 MAPK (Erk1/2) (Thr202/Tyr204) and p44/42 MAPK (Erk1/2) antibodies (Cell Signaling Technology). The density of blotting band was acquired using ImageJ software, and the IC50 of Btk (Tyr223) phosphorylation was fitted using a non-linear regression model by GraphPad Prism version 4.0.
(In western blotting, separated proteins are transferred to a membrane and probed.)

Assay [2] has as its system Stat5 phosphorylation in NK-92 cells. Nature of the assay: Western blotting assay for Stat5. The conditions noted are these: NK92, 1 hour, IL-2 stimulation, read-out: Stat5 inhibition. The protocol: (§1) All cell lines were obtained from the American Type Culture Collection and were maintained at 37° C. with 5% CO2. Ramos cell line was maintained in media supplemented with 10% fetal bovine serum, penicillin (100 units/mL) and streptomycin (100 μg/mL). NK-92 cell line was maintained in media supplemented with 10% fetal bovine serum and 10% horse serum, penicillin (100 units/mL) and streptomycin (100 μg/mL), IL-2 10 ng/mL. Goat F(ab′)2 Anti-Human IgM-UNLB was obtained from SouthernBiotech. IL-2 was obtained from Peprotech.
NK-92 cells were treated with compounds at the dosed indicated for 1 hour in incubator, followed by the IL-2 stimulation for 15 minutes. Cells were then collected and lysed to prepare the cellular extraction. Western blots were performed on cell lysate using Phospho-Jak3, Jak3, Phospho-Stat5, Stat5 antibodies (Cell Signaling Technology). The intensity of blotting band was acquired using Image Lab (Bio-Rad) software, and the IC50 of target was generated with GraphPad Prism.

Assay [3] deals with T1, Btk (Tyr223) phosphorylation in Ramos cells. As to the kind of experiment: Western blotting assay for Btk (Example 73). The conditions noted are these: 45 min, 6 μg/mL anti-IgM, read-out: Btk Inhibition. How it is done: as §1
Ramos cells were treated with compounds at indicated doses for 45 min at room temperature, followed by stimulation of 6 μg/mL of anti-IgM for 30 min, and then lysed. Western blots were performed on the cell lysate using Phospho-Btk (Tyr223), Phospho-Btk (Tyr551), Btk, Phospho-PLCγ2 (Tyr1217), PLCγ2, Phospho-p44/42 MAPK (Erk1/2) (Thr202/Tyr204) and p44/42 MAPK (Erk1/2) antibodies (Cell Signaling Technology). The density of blotting band was acquired using ImageJ software, and the IC50 of Btk (Tyr223) phosphorylation was fitted using a non-linear regression model by GraphPad Prism.

Assay [4] concerns the target T2, free Btk protein from Ramos cells (Homo sapiens, UniProt Q06187).
T2 construct: endogenous in cells; host or cells: Ramos cells (ATCC)
As to the kind of experiment: Btk target site occupancy ELISA assay. The conditions noted are these: 1 h, ELISA, read-out: Btk Occupancy Assay (IC50). How it is done: (§2) Ramos cells were treated with Compound I-1 at indicated concentrations for 1 h, followed by stimulation with 6 μg/mL of IgM for 30 mm, and then lysed. Lysates were incubated with Compound I-21 (biotin labeled) at a final concentration of 1 μM in a PBS, 0.05% Tween-20, 1% BSA solution while shaking for 1 h at room temperature. Samples were transferred to a streptavidin-coated 96-well ELISA plate and mixed while shaking for 1 h at room temperature. The Btk antibody (BD 611116, 1:1000 dilution in PBS+0.05% Tween-20+0.5% BSA) was then applied and incubated for 1 h at room temperature. After wash, goat anti-mouse-HRP (Pierce 31432, 1:1000 dilution in PBS+0.05% Tween-20+0.5% BSA) was added and incubated for 1 h at room temperature. The ELISA was developed with addition of tetramethyl benzidine (TMB) followed by Stop Solution and read at OD 450 nm.
as §2, with “Compounds” for “Compound I-1”, “anti-IgM” for “IgM”, “diluted” for “dilution”, “tetramethylbenzidine” for “tetramethyl benzidine”
For orientation: ELISA stands for enzyme-linked immunosorbent assay.

T2 sequence (Q06187 whole entry): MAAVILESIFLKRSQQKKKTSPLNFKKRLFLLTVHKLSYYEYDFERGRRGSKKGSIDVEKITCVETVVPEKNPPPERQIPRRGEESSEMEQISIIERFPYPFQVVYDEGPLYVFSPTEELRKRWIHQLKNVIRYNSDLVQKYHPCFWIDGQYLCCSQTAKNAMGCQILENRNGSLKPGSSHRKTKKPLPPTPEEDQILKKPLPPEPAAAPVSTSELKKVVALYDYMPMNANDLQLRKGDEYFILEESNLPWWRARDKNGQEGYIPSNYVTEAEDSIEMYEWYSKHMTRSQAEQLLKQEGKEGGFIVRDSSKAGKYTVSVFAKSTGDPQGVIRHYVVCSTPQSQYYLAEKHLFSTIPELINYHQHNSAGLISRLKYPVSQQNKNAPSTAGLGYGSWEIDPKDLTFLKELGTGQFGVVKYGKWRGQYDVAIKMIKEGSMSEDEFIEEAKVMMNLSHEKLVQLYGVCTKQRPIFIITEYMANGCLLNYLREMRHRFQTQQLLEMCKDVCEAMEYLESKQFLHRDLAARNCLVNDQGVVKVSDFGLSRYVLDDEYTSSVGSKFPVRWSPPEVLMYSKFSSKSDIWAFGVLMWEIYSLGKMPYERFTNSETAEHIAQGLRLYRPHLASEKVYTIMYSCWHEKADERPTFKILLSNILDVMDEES
T1 sequence (Q06187 whole entry): as above

Turning to `C=CC(=O)Nc1cccc(Oc2nc(Nc3ccc(N4CCN(CCF)CC4)c(F)c3)ncc2OC)c1` [Compound I-3, N-(3-(2-(3-fluoro-4-(4-(2-fluoroethyl)piperazin-1-yl)phenylamino)-5-methoxypyrimidin-4-yloxy)phenyl)acrylamide], the figures for the IC50 in assay [1], in assay [2] and in assay [3] were less than 10 nM, 200 to 400 nM and no more than 10 nM, respectively.
On the same counts, the results for `C=CC(=O)Nc1cccc(Nc2nc(Nc3ccc(N4CCN(CCF)CC4)c(F)c3)ncc2F)c1` [Compound I-4, N-(3-((5-fluoro-2-((3-fluoro-4-(4-(2-fluoroethyl)piperazin-1yl)phenyl)amino)pyrimidin-4-yl)amino)phenyl)acrylamide] are less than 10 nM, 200 to 400 nM and no more than 10 nM.
In the same order, the values of `C=CC(=O)Nc1cccc(Nc2nc(Nc3ccc(N4CCN(CCF)CC4)cc3)ncc2OC)c1` [Compound I-5] are less than 10 nM, 200 to 400 nM and no more than 10 nM.
On the same counts, the results for `C=CC(=O)Nc1ccccc1Nc1nc(Nc2ccc(N3CCN(CCF)CC3)cc2)ncc1F` [Compound I-6, N-(2-(5-fluoro-2-(4-(4-(2-fluoroethyl)piperazin-1-yl)phenylamino)pyrimidin-4-ylamino)phenyl)acrylamide] are less than 10 nM, 200 to 400 nM and no more than 10 nM.
Regarding `C=CC(=O)Nc1cccc(Nc2nc(Nc3ccc(N4CCN(CCF)CC4)c(F)c3)ncc2OC)c1` [Compound I-7], the IC50 was 10 to 100 nM in assay [1], no less than 400 nM in assay [2] and 10 to 100 nM in assay [3].
As to `C=CC(=O)Nc1cccc(Oc2nc(Nc3ccc(N4CCN(CCF)CC4)c(F)c3)ncc2F)c1` [Compound I-8], the IC50 in assay [1] is less than 10 nM.
Consider `C=CC(=O)Nc1cccc(Oc2nc(Nc3ccc(N4CCN(CCF)CC4)cc3)ncc2OC)c1` [Compound I-9], for which the figures for the IC50 in assay [1], in assay [2] and in assay [3] were less than 10 nM, 200 to 400 nM and no more than 10 nM, respectively.
For the molecule `C=CC(=O)Nc1cccc(Oc2nc(Nc3ccc(OCCOC)cc3)nc3[nH]ccc23)c1` [Compound I-10, N-(3-(2-(4-(2-methoxyethoxy)phenylamino)-7H-pyrrolo[2,3-d]pyrimidin-4-yloxy)phenyl)acrylamide], the IC50 in assay [1] is less than 10 nM; in assay [2], 200 to 400 nM; in assay [3], no more than 10 nM; in assay [4], 10 to 100 nM.
Consider `C=CC(=O)Nc1cccc(Nc2nc(Nc3ccc(OCCOC)cc3)nc3[nH]ccc23)c1` [Compound I-11, N-(3-(2-(4-(2-methoxyethoxy)phenylamino)-7H-pyrrolo[2,3-d]pyrimidin-4-ylamino)phenyl)acrylamide], for which the results for the IC50 in assay [1], in assay [2] and in assay [3] were 10 to 100 nM, no less than 400 nM and 10 to 100 nM, respectively.
Turning to `C=CC(=O)Nc1cccc(Oc2nc(Nc3ccc(N4CCN(CCF)CC4)cc3)ncc2F)c1` [Compound I-12], the IC50 lay within 10 to 100 nM in assay [1], 200 to 400 nM in assay [2] and 10 to 100 nM in assay [3].
On to `C=CC(=O)Nc1cccc(Oc2nc(Nc3ccc(N[C@H]4CCN(CCF)C4)cc3)ncc2OC)c1` [Compound I-13, (S)—N-(3-(2-(4-(1-(2-fluoroethyl)pyrrolidin-3-ylamino)phenylamino)-5-methoxypyrimidin-4-yloxy)phenyl)acrylamide], for which the IC50 in assay [1] is less than 10 nM; in assay [2], no less than 400 nM; in assay [3], no more than 10 nM; in assay [4], no more than 10 nM.
Turning to `C=CC(=O)Nc1cccc(Oc2nc(Nc3ccc(N[C@@H]4CCN(CCF)C4)cc3)ncc2OC)c1` [Compound I-14, (R)—N-(3-(2-(4-(1-(2-fluoroethyl)pyrrolidin-3-ylamino)phenylamino)-5-methoxypyrimidin-4-yloxy)phenyl)acrylamide], the IC50 in assay [1] is 10 to 100 nM; in assay [2], no less than 400 nM; in assay [3] it was 10 to 100 nM.
For the molecule `C=CC(=O)Nc1cccc(Nc2nc(Nc3ccc(N[C@H]4CCN(CCF)C4)cc3)ncc2F)c1` [Compound I-15], the IC50 in assay [1] was less than 10 nM; in assay [2] it was no less than 400 nM; in assay [3], no more than 10 nM.
`C=CC(=O)Nc1cccc(Nc2nc(Nc3ccc(N[C@H]4CCN(CCF)C4)cc3)ncc2OC)c1` [Compound I-16, (S)—N-(3-(2-(4-(1-(2-fluoroethyl)pyrrolidin-3-ylamino)phenylamino)-5-methoxypyrimidin-4-ylamino)phenyl)acrylamide]: the IC50 in assay [1] was less than 10 nM; in assay [2] it was no less than 400 nM; in assay [3], no more than 10 nM.
On the same counts, the results for `C=CC(=O)Nc1cccc(Nc2nc(Nc3ccc(N[C@@H]4CCN(CCF)C4)cc3)ncc2OC)c1` [Compound I-17, (R)—N-(3-(2-(4-(1-(2-fluoroethyl)pyrrolidin-3-ylamino)phenylamino)-5-methoxypyrimidin-4-ylamino)phenyl)acrylamide] are less than 10 nM, no less than 400 nM and no more than 10 nM.
In the same order, the values of `C=CC(=O)Nc1cccc(Nc2nc(Nc3ccc(N[C@@H]4CCN(CCF)C4)cc3)ncc2F)c1` [Compound I-18] are less than 10 nM, 200 to 400 nM and no more than 10 nM.
Consider `C=CC(=O)Nc1cccc(Oc2nc(Nc3ccc(N[C@H]4CCN(CCF)C4)cc3)ncc2F)c1` [Compound I-20, (S)—N-(3-(5-fluoro-2-(4-(1-(2-fluoroethyl)pyrrolidin-3-ylamino)phenylamino)pyrimidin-4-yloxy)phenyl)acrylamide], for which the IC50 in assay [3] and in assay [4] was no more than 10 nM throughout.
Consider `C=CC(=O)Nc1cccc(Oc2nc(Nc3ccc(N(C)[C@H]4CCN(C(C)=O)C4)cc3)ncc2OC)c1` [Compound I-58a, (S)—N-(3-(2-(4-((1-acetylpyrrolidin-3-yl)(methyl)amino)phenylamino)-5-methoxypyrimidin-4-yloxy)phenyl)acrylamide], for which the results for the IC50 in assay [2], in assay [3] and in assay [4] were no less than 400 nM, no more than 10 nM and no more than 10 nM, respectively.
